Blank lines part the entries; values can stand above or below the compound they belong to.
Legend:
hERG potassium channels = hERG potassium channels (Homo sapiens, UniProt Q12809); assay: cell-based
Description: CHO cells expressing hERG protein were cultured in 175 cm^2 culture flasks. When the cell density grew to 60-80%, the culture medium was removed, the cells were washed once with 7 mL PBS, and then 3 mL Detachin was added for digestion. After digestion was complete, 7 mL of culture medium was added to neutralize, then centrifuged. The supernatant was aspirated, and 5 mL of culture medium was added to resuspend to ensure that the cell density is 2-5×10^6/mL.
Both the single-cell high-impedance sealing and whole-cell mode formation processes were automatically completed by the Qpatch instrument. After obtaining the whole-cell recording mode, the cell was clamped at -80 mV. Before a 5-second +20 mV depolarizing stimulus was given, a 50-ms -50 mV pre-voltage was given, and then the cell was repolarized to -50 mV for 5 seconds and then returned to -80 mV. This voltage stimulation was applied every 15 seconds. After recording for 2 minutes, the extracellular solution was recorded for 2 minutes. Then the drug administration process began. The compound concentration started from the lowest tested concentration. Each tested concentration was given for 2 minutes. […] At least three cells were tested for each concentration (n≥3).
The compound stock solution was diluted with extracellular fluid, 5 µL of 20 mM compound stock solution was added to 2495 µL extracellular fluid, diluted 500 times to 40 µM, and then serially diluted 3 times in extracellular fluid containing 0.2% DMSO (v/v) to obtain the final concentration to be tested.
The experimental data were analyzed by XLFit software.

[1] = test system: hGLP-1 receptor knock-in mice; assay: Oral glucose tolerance test in mice; assay type: in vivo; settings: for effect compared with positive control PF-06882961 ammonium salt at the same dose: oral glucose tolerance test; for blood glucose area under the curve / blood glucose concentration: orally administered at 1 mg/kg, vs blank control; for blood glucose area under the curve: AUC(0-90)
Description: (§1) Genetically engineered hGLP-1R gene knock-in mice, male, 8-10 weeks old, specific pathogen free (SPF) grade, were purchased from Biocytogen Jiangsu Gene Biotechnology Co., Ltd. All experimental animals were housed in the SPF-level environment of the National Compound Sample Library animal room, with a temperature of 24±2°C, a relative humidity of 40-60%RH, an air cleanliness level of 7, and a day and night light-dark cycle of 12h/12h; they were continuously supplied with cobalt-60 radiation-sterilized complete mouse granular feed (Shanghai Shilin Biotechnology Co., Ltd., maintenance feed for rats and mice), and were allowed to drink tap water (sterilized with high-pressure steam) without interruption, and were allowed to drink it freely. The cages were transparent polyetherimide cages (Suzhou Fengshi Experimental Animal Equipment Co., Ltd., CP-8 mouse cages), and the bedding was corn cobs (Tezhou Gumei Agricultural Technology Co., Ltd., used after high-pressure steam sterilization). There were 3-5 animals in each cage, and the cage card indicated the IACUC approval number, experiment number, experiment start time, person in charge, experimenter, animal source, group and animal number. The purchased mice were adapted to this breeding environment for at least 7 days before being used in experiments. The animal use methods in this study were approved by the IACUC Committee of the Shanghai Institute of Materia Medica.
60 minutes after oral administration, blood glucose was measured again as zero-point blood glucose. Then, 2 g/kg of sugar was orally administered, and blood glucose was measured using a blood glucose meter 15 minutes, 30 minutes, 60 minutes, and 90 minutes after sugar administration. In order to explore the effect of long-term administration on glucose tolerance, 2 g/kg of sugar was orally administered again […] the administration of the compound, and the blood glucose changes were measured at 180 min, 195 min, 210 min, 240 min, and 270 min.

human GLP-1 receptor = target: T1, human GLP-1 receptor (Homo sapiens, UniProt P43220); assay: GLP-1 receptor-mediated agonist activity: cAMP level in hGLP-1R/HEK293 cell line (HTRF); assay type: cell-based; settings: cAMP levels in hGLP-1R/HEK293 cell line; Table 1; read-out: determined EC50
T1 construct: HA (N); expressed in transfected cells

[2] = test system: hGLP-1 receptor knock-in mice; assay: Mouse food intake suppression experiment (compound 19); assay type: in vivo; settings: 30 mg/kg oral
Description: as §1, with “The animal use methods in this study were approved by the IACUC Committee of the Shanghai Institute of Materia Medica.” left out

β-arrestin 1 = assay: NanoBiT recruitment of β-arrestin 1 by GLP-1R in HEK293 cells; assay type: cell-based; settings: Homo sapiens, read-out: maximum agonistic effect (Emax) recruiting β-arrestin 1;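 also: 100% equals the maximal response of endogenous GLP-1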
Text: (§2) The Promega NanoBiT protein-protein reaction system was used to detect the recruitment of β-arrestin 1 and β-arrestin 2 by GLP-1R. The NanoBit Protein-Protein Reaction System was a dual-subunit system based on NanoLuc luciferase that could be used to detect protein-protein interactions in cells. The LgBiT (17.6 kDa) and SmBiT (11 amino acids) subunits were fused to the proteins of interest, respectively. When the proteins of interest interact, the two subunits came into close proximity to form an enzyme with catalytic activity, which could catalyze the luminescence of the luciferase substrate. Firstly, the human GLP-1R gene was connected to the N-terminus of LgBit, the β-arrestin 1/2 gene was cloned to the C-terminus of SmBit, and the fusion protein was introduced into the pcDNA3.0 vector to construct plasmids expressing hGLP-1R-LgBit and SmBit-β-arrestin 1/2 fusion proteins. The hGLP-1R-LgBit plasmid and SmBit-β-arrestin 1 (or SmBit-β-arrestin 2) plasmid were co-transfected into HEK293 cells at a ratio of 1 µg plasmid/2×10^6 cells. Immediately after transfection, the cells were added to a 96-well white-bottom plate at a density of 4×10^5 cells/well, and the cells were cultured in an incubator (37°C, 5% CO2) for 20 hours.
(§3) After 20 hours, the liquid in the wells was discarded, 40 µL of fresh culture medium (DMEM+0.2% BSA, m/v) was added first, and then 10 µL of Nano-Glo Live Cell detection solution (Promega, #N2011) was added, and then the cells were placed in an incubator and incubated for 10 minutes. The compound was dissolved in DMSO and prepared into a storage solution with a concentration of 10mM. The experiment started with a concentration of 100µM. […] After the cells were incubated for 10 min, 25 µL of culture medium containing the compound was added to each well and incubated at room temperature for 5 min. The fluorescence signal was then detected using an Envision 2104 multi-function microplate reader (PerkinElmer). All samples were tested in triplicate, and the fluorescence signal ratio and the corresponding compound concentration were analyzed using GraphPad Prism 8 software.

β-arrestin 2 = assay: NanoBiT recruitment of β-arrestin 2 by GLP-1R in HEK293 cells; assay type: cell-based; settings: Homo sapiens, read-out: maximum agonistic effect (Emax) recruiting β-arrestin 2;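 also: 100% equals the maximal response of endogenous GLP-1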
Text: as §2, §3

[3] = test system: hGLP-1 receptor knock-in mice; assay: Mouse food intake suppression experiment (compound 76-1); assay type: in vivo; settings: 10 or 30 mg/kg oral
Description: as §1, with “The animal use methods in this study were approved by the IACUC Committee of the Shanghai Institute of Materia Medica.” left out

[4] = test system: hGLP-1 receptor knock-in mice; assay: Long-term administration in high-fat diet fed hGLP-1R mice for weight loss; assay type: in vivo; settings: ammonium salt; for weight gain of HFD-fed mice: 30 mg/kg by gavage once a day, 15 days; for reduce body weight compared with the blank control group: 30 mg/kg once a day, HFD
Description: as §1
The mice were weighed every day, and 24 hours after the last administration, the body fat and muscle content of the mice were detected using a Bruker desktop nuclear magnetic resonance spectrometer (model LF90II). • (4) Experimental results

hGLP-1R transgenic mice = assay: Hypoglycemic effect of compound 76-1 (oral glucose tolerance test); assay type: in vivo
Description: Mouse model: hGLP-1R transgenic mice, 6 female mice per experimental group.
Experimental procedure: The mice were starved overnight, and the blood sugar in the tail of the mice was measured. 30 minutes after oral administration, the blood sugar was measured again as the blood sugar at zero point. Then, 2g/kg of sugar was given orally. 15min, 30min, 60min, and 90min after sugar administration, the blood sugar was measured using a blood glucose meter.

hGLP-1R KI mice = assay: Diet inhibition by Tris salts (food intake after single oral dose); assay type: in vivo; settings: 30 mg/kg; for duration of the food intake reducing effect / food intake: Tris salt, single oral administration
Description: Mouse model: hGLP-1R KI mice, 8 female mice per experimental group.
Experimental procedure: Mice were separated into cages and fasted 6 hours in advance, and were given drugs by oral gavage at the beginning of the night cycle (7:00 PM). The weight of food in each cage was weighed at 0, 2.5, 5, 12 (7:00 AM at the beginning of the day cycle), and 24 hours after drug administration to calculate the food intake of mice.

[5] = after 15 days of administration

T1 sequence (P43220 24-463): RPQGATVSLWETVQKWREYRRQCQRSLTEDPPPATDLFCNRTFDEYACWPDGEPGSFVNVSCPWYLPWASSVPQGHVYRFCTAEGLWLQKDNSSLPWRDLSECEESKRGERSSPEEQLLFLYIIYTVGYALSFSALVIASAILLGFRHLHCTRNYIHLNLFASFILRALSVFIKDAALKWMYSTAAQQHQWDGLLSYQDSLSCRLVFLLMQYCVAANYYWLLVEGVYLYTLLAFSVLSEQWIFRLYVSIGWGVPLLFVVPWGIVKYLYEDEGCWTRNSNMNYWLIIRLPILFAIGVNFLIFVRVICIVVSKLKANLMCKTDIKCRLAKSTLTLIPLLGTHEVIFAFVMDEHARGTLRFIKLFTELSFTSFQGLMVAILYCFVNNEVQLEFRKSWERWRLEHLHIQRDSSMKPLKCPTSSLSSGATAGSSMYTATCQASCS
Chain of hERG potassium channels (Q12809 whole entry): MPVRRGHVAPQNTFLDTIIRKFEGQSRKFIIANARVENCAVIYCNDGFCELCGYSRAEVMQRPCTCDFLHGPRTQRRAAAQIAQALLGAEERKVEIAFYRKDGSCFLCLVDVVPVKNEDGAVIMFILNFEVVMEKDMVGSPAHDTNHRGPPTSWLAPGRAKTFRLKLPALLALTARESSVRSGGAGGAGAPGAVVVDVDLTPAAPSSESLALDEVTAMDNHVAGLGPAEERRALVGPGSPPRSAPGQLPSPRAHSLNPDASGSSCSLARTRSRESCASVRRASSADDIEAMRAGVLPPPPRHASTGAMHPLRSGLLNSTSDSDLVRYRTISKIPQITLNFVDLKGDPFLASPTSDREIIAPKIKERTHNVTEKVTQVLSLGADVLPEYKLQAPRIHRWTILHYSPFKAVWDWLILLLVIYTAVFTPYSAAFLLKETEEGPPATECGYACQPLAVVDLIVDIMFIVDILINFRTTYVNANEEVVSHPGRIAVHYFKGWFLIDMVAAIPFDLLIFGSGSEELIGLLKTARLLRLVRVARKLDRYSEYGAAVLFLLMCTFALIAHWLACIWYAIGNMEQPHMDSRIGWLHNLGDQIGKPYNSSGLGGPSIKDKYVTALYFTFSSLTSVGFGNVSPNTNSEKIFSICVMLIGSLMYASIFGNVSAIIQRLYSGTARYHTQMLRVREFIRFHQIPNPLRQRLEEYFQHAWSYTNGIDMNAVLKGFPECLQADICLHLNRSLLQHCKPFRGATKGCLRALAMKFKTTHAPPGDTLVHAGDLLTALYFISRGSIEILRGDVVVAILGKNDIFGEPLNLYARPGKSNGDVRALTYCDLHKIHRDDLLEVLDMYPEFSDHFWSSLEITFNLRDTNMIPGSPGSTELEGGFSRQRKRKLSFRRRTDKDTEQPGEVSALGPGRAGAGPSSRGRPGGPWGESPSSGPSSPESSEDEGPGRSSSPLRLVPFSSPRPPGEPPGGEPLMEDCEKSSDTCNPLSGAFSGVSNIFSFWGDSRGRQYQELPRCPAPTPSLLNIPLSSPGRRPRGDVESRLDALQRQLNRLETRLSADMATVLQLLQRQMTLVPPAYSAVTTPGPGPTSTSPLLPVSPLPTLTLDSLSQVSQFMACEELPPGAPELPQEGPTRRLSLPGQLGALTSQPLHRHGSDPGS

- EC50 (human GLP-1 receptor): 0.0026 nM
SMILES: COc1cc(C(=O)O)cc2c1nc(CN1CCC(c3cccc(OCc4ccc(Cl)cc4F)n3)CC1)n2C[C@@H]1CCO1 [Compound 19, (S)-2-((4-(6-((4-chloro-2-fluorobenzyl)oxy)pyridin-2-yl)piperidin-1-yl)methyl)-4-methoxy-1-(oxetan-2-ylmethyl)-1H-benzo[d]imidazole-6-carboxylic acid]
- IC50 (hERG potassium channels): 12500 nM
- effect compared with positive control PF-06882961 ammonium salt at the same dose ([1]; 1 mg/kg oral): better than the positive control PF-06882961 ammonium salt
- lowering blood sugar in long-term oral glucose tolerance test ([1]; ammonium salt, 1 mg/kg oral, second sugar load 240 min after administration, AUC(180-270), vs PF-06882961 ammonium salt): more significant effect in lowering blood sugar
- blood glucose area under the curve ([1]; ammonium salt): significantly reduce
- blood glucose concentration ([1]; ammonium salt): significantly reduce
- effect on food intake compared with positive control PF-06882961 ammonium salt at the same dose [2]: better than the positive control PF-06882961 ammonium salt
- food intake ([2]; ammonium salt, within 0 to 12 hours after administration): significantly inhibit the food intake

SMILES: COc1cc(Cl)ccc1COc1cccc(N2C=NN(Cc3nc4c(OC)cc(C(=O)O)cc4n3C[C@@H]3CCO3)CC2)n1 [Compound 20, (S)-2-((4-(6-((4-chloro-2-methoxybenzyl)oxy)pyridin-2-yl)-5,6-dihydro-1,2,4-triazin-1(4H)-yl)methyl)-4-methoxy-1-(oxetan-2-ylmethyl)-1H-benzo[d]imidazole-6-carboxylic acid]
- Emax (β-arrestin 1): 30 to 50%
- IC50 (hERG potassium channels): > 40000 nM
- effect compared with positive control PF-06882961 ammonium salt at the same dose ([1]; 1 mg/kg oral): better than the positive control PF-06882961 ammonium salt
- blood glucose area under the curve ([1]; ammonium salt): significantly reduce
- blood glucose concentration ([1]; ammonium salt): significantly reduce
- Emax (β-arrestin 2): 30 to 50%

- EC50 (human GLP-1 receptor): 0.0016 nM
SMILES: [2H]C([2H])([2H])C([2H])([2H])Oc1cc(C(=O)O)cc2c1nc(CN1CCN(c3cccc4c3O[C@@](C)(c3ccc(Cl)cc3F)O4)C=N1)n2C[C@@H]1CCO1 [Compound 76-1, 2-((4-((S)-2-(4-chloro-2-fluorophenyl)-2-methylbenzo[d][1,3]dioxol-4-yl)-5,6-dihydro-1,2,4-triazin-1(4H)-yl)methyl)-4-(ethoxy-d5)-1-(((S)-oxetan-2-yl)methyl)-1H-benzo[d]imidazole-6-carboxylic acid]
- effect on food intake compared with positive control PF-06882961 ammonium salt at the same dose [3]: better than the positive control PF-06882961 ammonium salt
- food intake ([3]; ammonium salt, within 0 to 12 hours, fasted 6 h): significantly inhibit the food intake
- weight gain of HFD-fed mice [4]: effectively inhibit the weight gain
- reduce body weight compared with the blank control group [4, 5]: 20.4%
- body fat and lean (muscle) content change trend in HFD mice ([4]; 30 mg/kg, after 15 days of administration): effectively inhibit this change trend
- area under the blood glucose curve (AUC) (hGLP-1R transgenic mice; ammonium salt, 0.1, 0.3 mg/kg oral): dose-dependently reduce
- blood glucose level (hGLP-1R transgenic mice; ammonium salt, 0.1, 0.3 mg/kg oral, 30 min before 2 g/kg sugar): dose-dependently reduce
- effective dose (hGLP-1R transgenic mice; ammonium salt, oral, oral glucose tolerance test): ≤ 0.1 mg/kg

- EC50 (human GLP-1 receptor): 0.0018 nM
SMILES: CCOc1cc(C(=O)O)cc2c1nc(CN1CCN(c3cccc4c3O[C@@](C)(c3ccc(C(F)(F)F)cc3F)O4)C=N1)n2C[C@@H]1CCO1 [Compound 81-1, 4-ethoxy-2-((4-((S)-2-(2-fluoro-4-(trifluoromethyl)phenyl)-2-methylbenzo[d][1,3]dioxol-4-yl)-5,6-dihydro-1,2,4-triazin-1(4H)-yl)methyl)-1-(((S)-oxetan-2-yl)methyl)-1H-benzo[d]imidazole-6-carboxylic acid]
- inhibitory effect on eating compared with Tris salt of positive control PF-06882961 at the same dose (hGLP-1R KI mice; at 5, 12 and 24 hours): significantly better than
- duration of the food intake reducing effect (hGLP-1R KI mice): 24 h
- food intake (hGLP-1R KI mice): significantly reduce the food intake

- EC50 (human GLP-1 receptor): 0.0051 nM
SMILES: [2H]C([2H])([2H])C([2H])([2H])Oc1cc(C(=O)O)cc2c1nc(CN1CCN(c3cccc4c3O[C@@](C)(c3ccc(C(F)(F)F)cc3F)O4)C=N1)n2C[C@@H]1CCO1 [Compound 82-1, 4-(ethoxy-d5)-2-((4-((S)-2-(2-fluoro-4-(trifluoromethyl)phenyl)-2-methylbenzo[d][1,3]dioxol-4-yl)-5,6-dihydro-1,2,4-triazin-1(4H)-yl)methyl)-1-(((S)-oxetan-2-yl)methyl)-1H-benzo[d]imidazole-6-carboxylic acid]
- duration of the food intake reducing effect (hGLP-1R KI mice): 24 h
- food intake (hGLP-1R KI mice): significantly reduce the food intake

SMILES: N#Cc1ccc(COc2cccc(C3CCN(Cc4nc5ccc(C(=O)O)cc5n4C[C@@H]4CCO4)CC3)n2)c(F)c1 [PF-06882961, reference compound]
- Emax (β-arrestin 1): 75 to 80%
- weight gain of HFD-fed mice [4]: effectively inhibit the weight gain
- reduce body weight compared with the blank control group [4, 5]: 10.2%
- Emax (β-arrestin 2): 75 to 80%

From patent EP4650353A1 (Shanghai Institute of Materia Medica, Chinese Academy of …, priority 2023, dated 2024)
